For one data set, the system named is Vero E6 cells. The note with it: concentrations below 16.67 μM of 10-point dose response.
Data set [1] concerns SARS-CoV-2. Description: microbe, parasite or virus in culture. Format: cell-based, strain USA_WA1/2020. The note with it: Severe acute respiratory syndrome coronavirus 2, Calu-3, read-out: IC50, infectious virus production (plaque assay).
Data set [2] concerns SARS-CoV-2. Format: cell-based, strain USA_WA1/2020.
Data set [3] deals with SARS-CoV-2. Format: cell-based, strain USA_WA1/2020. The following applies: VPS34-IN1 5 μM, orlistat 500 μM, triacsin C 5 μM, TOFA 50 μM, 2-bromopalmitate 50 μM, A922500 30 μM, remdesivir 1 μM.
Data set [4] concerns SARS-CoV-2. Description: microbe, parasite or virus in culture. Format: cell-based, strain USA_WA1/2020.
For data set [5], the system named is SARS-CoV-2. Format: cell-based, strain USA_WA1/2020. This is another data set of the same source.
The next data set concerns the target VPS34 (Homo sapiens, UniProt Q8NEB9). Format: cell-based. The note with it: Huh7 cells, 24 h treatment; VPS34-IN1 2 μM, PIK-III 5 μM, SAR405 5 μM, Compound 19 5 μM, Orlistat 200 μM.
[6] abbreviates: read-out: IC50, infectious virus production (focus forming assay).

Experimental findings from PMC8289695 (Cell Reports, 2021) are described below.

Where two headings read alike, the source gives them in different places.

Chain of VPS34 (Q8NEB9 whole entry): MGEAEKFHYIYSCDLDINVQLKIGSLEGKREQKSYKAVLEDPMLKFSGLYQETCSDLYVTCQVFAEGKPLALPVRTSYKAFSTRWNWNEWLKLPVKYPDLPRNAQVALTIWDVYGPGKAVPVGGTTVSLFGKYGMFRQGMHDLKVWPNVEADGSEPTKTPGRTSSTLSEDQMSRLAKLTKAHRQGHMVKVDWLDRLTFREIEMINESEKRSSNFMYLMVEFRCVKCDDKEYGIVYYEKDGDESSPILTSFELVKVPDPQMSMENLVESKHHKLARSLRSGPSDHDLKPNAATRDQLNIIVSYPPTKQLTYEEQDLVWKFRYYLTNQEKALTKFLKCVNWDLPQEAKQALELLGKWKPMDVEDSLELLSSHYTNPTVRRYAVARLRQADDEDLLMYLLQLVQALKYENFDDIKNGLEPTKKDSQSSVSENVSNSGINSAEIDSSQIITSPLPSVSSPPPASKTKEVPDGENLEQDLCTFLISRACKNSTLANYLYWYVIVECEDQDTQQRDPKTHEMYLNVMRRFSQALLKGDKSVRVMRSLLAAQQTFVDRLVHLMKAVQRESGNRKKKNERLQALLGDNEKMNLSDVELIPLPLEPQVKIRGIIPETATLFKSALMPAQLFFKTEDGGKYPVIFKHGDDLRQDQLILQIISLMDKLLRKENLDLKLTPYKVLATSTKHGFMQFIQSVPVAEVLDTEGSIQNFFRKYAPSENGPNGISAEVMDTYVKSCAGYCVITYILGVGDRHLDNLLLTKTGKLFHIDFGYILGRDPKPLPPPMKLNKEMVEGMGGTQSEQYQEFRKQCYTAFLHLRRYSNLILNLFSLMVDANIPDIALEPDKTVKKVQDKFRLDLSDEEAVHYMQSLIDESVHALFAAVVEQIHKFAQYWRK

Broadly, the IC50 is the midpoint of a concentration-inhibition curve. As to `Nc1ncc(-c2ccnc(Nc3ccncc3)n2)c(CC2CC2)n1` [PIK-III], the “toxicity at the remaining concentrations (resistance 1-20 hpi)” value with Vero E6 cells was “no toxicity was observed”. Besides, the IC50 in the data set on SARS-CoV-2 [1] was 120 nM.

Take `CC(C)(O)CNc1ncc(-c2ccnc(Nc3ccnc(Cl)c3)n2)c(CC2CC2)n1` [VPS34-IN1]: the “viral RNA levels” value with SARS-CoV-2 [2] is “reduced RNA levels at both MOI 0.01 and 1”. Besides, the “dsRNA and SARS-CoV-2 N distribution (replication centers)” value (“dsRNA and SARS-CoV-2 N distribution” below) in the data set on SARS-CoV-2 [3] was “loss of these distinct puncta and dispersion of dsRNA and SARS-CoV-2 N”. The “toxicity at the remaining concentrations (resistance 1-20 hpi)” value in the data set on Vero E6 cells is reported as “no toxicity was observed”. In the data set on SARS-CoV-2 [1], the IC50 was determined as 550 nM.

For the molecule `CCCCCCCCCCCCCCC(Br)C(=O)O` (stereo not shown) [2-bromopalmitate], the “concentrations at which infectious virus production was inhibited” value in the data set with SARS-CoV-2 [4] is given as “greater than 10 μM”. The IC50 with SARS-CoV-2 [4] (setting [6]) was determined as 23 µM. Also, the “viral RNA levels” value with SARS-CoV-2 [2] was “reduced RNA levels at both MOI 0.01 and 1”. For the same molecule, the “dsRNA and SARS-CoV-2 N distribution” value in the data set with SARS-CoV-2 [3] is listed as “fewer but larger foci positive for both markers”.

Turning to `CCCCCCCCCCCCCCOc1ccc(C(=O)O)o1` [TOFA], the IC50 in the data set with SARS-CoV-2 [4] (setting [6]) came to 1.34 µM. The “dsRNA and SARS-CoV-2 N distribution” value in the data set with SARS-CoV-2 [3] is “loss of these distinct puncta and dispersion of dsRNA and SARS-CoV-2 N”.

As for `C[C@@H]1COCCN1c1cc(=O)n2c(n1)N(Cc1cncc(Cl)c1)[C@H](C(F)(F)F)CC2` [SAR405], the IC50 with SARS-CoV-2 [4] (Severe acute respiratory syndrome coronavirus 2, Calu-3, read-out: IC50, infectious virus production (focus forming assay)) came out at 0.376 µM.

As to `C=C1C(=O)OC(CCCCCCCC)C1C(=O)O` (stereo not shown) [C75], the IC50 with SARS-CoV-2 [4] (setting [6]) was 22.8 µM.

`CCC(CC)COC(=O)[C@H](C)N[P@](=O)(OC[C@H]1O[C@@](C#N)(c2ccc3c(N)ncnn23)[C@H](O)[C@@H]1O)Oc1ccccc1` [remdesivir]: the “RNA synthesis at earlier time points (4 and 10 hpi)” value in the data set on SARS-CoV-2 [2] is “inhibited RNA synthesis at earlier time points as well”. In the data set on SARS-CoV-2 [3], the “dsRNA and SARS-CoV-2 N distribution” value was “distribution of N and dsRNA similar to the DMSO control”.

As to `CCCCCCCCCCC[C@@H](C[C@@H]1OC(=O)[C@H]1CCCCCC)OC(=O)[C@H](CC(C)C)NC=O` [orlistat], in the data set on SARS-CoV-2 [5], the “inhibition of viral cytopathic effects at highest concentration” value is “complete inhibition was not achieved”. Also, the “effect on GFP-2xFYVE localization to endosomes (puncta)” value on VPS34 was “did not affect GFP-2xFYVE localization”. In the data set on SARS-CoV-2 [2], the “viral RNA levels” value is “reduced RNA levels at both MOI 0.01 and 1”. In addition, in the data set on SARS-CoV-2 [3], the “dsRNA and SARS-CoV-2 N distribution” value is “loss of these distinct puncta and dispersion of dsRNA and SARS-CoV-2 N”. In addition, the IC50 in the data set on SARS-CoV-2 [1] worked out at 21200 nM.

For `O=C(Nc1ccccc1)Nc1ccc(-c2ccc(C(=O)[C@@H]3CCC[C@H]3C(=O)O)cc2)cc1` [A922500], in the data set with SARS-CoV-2 [4] (setting [6]), the IC50 was found to be 4.02 µM. In the data set on SARS-CoV-2 [3], the “dsRNA and SARS-CoV-2 N distribution” value is “loss of these distinct puncta and dispersion of dsRNA and SARS-CoV-2 N”.

For the molecule `COc1ccc(CN2CCNCC2)c(OC)c1OC` [trimetazidine], in the data set on SARS-CoV-2 [4], the “inhibition of SARS-CoV-2 (focus forming assay)” value is on record as “Neither compound showed any inhibition”.

Turning to `CCOC(=O)[C@@]1(CCCCCCOc2ccc(Cl)cc2)CO1` [etomoxir], the “inhibition of SARS-CoV-2 (focus forming assay)” value in the data set with SARS-CoV-2 [4] was “Neither compound showed any inhibition”.

As for `CCC/C=C/C/C=C/C=C/C=N/NN=O` [triacsin C], in the data set on SARS-CoV-2 [2], the “viral RNA levels” value is “reduced RNA levels at both MOI 0.01 and 1”. Also, the “dsRNA and SARS-CoV-2 N distribution” value with SARS-CoV-2 [3] is recorded as “fewer but larger foci positive for both markers”. For the same molecule, in the data set with SARS-CoV-2 [1], the IC50 is 40 nM.
